Laboratory results: patent publication US20140242707A1, “Compositions and Methods for Diagnosing Hypercoagulability and Hypocoagulability” (Philadelphia Health & Education Corporation d/b/a Drexel …, priority 2011, published 2014)

Test system: Pooled normal plasma
Test: Thrombelastography of tissue factor-activated pooled normal plasma (Example 1)
Format: biochemical, human
Method: Pooled normal plasma (George King Bio-Medical, Overland Park, Kans., USA) anticoagulated with sodium citrate was utilized for experimentation. The lot of plasma used for all experimentation was #1853, with a prothrombin time of 12.3 sec, an activated partial thromboplastin time of 29.3 sec, and a fibrinogen concentration >250 mg/dl. The final volume for all subsequently described plasma sample mixtures was 359.2 μl. Sample composition consisted of 322 μl of plasma; 10 μl of tissue factor reagent (0.1% final concentration in dH2O; Instrumentation Laboratory, Lexington, Mass., USA), 3.6 μl of dH2O or dH2O containing the organic reductant phenylhydroxylamine (PHA, 0-30 mM final concentration, Sigma-Aldrich, Saint Louis, Mo., USA), 3.6 μl of dimethyl sulfoxide (DMSO) or DMSO with CORM-2 (0-400 μM final concentration; Sigma-Aldrich) and 20 μl of 200 mM CaCl2. PHA was chosen as the agent to convert fibrinogen-associated, heme-bound Fe^+2 to an Fe^+3 state (1978, Castro et al., Biochemistry 17:225-231; 1986, Harrison and Jollow, J Pharmacol Exp Ther 238:1045-1054; 1987, Harrison and Jollow, Mol Pharmacol 32:423-431; 1999, Ciccoli et al., Toxicol Lett 110:57-66). Stock solutions of CORM-2 were made just before each experiment. Tissue factor stock solution was kept on ice prior to use and was remade every two hours.
Plasma sample mixtures were placed in a disposable cup in a computer-controlled thrombelastograph hemostasis system (Model 5000, Haemoscope Corp., Niles, Ill., USA), with addition of CaCl2 as the last step to initiate clotting. Data were collected for 15 min at 37° C. Given that final clot strength is the sine quo non of fibrinogen concentration in plasma (2005, Nielsen et al., Acta Anaesthesiol Scand 49:222-231), and that elastic modulus (G, dyne/cm^2) is a measure of strength that can be determined by all commercially available thrombelastographs/thromboelastometers, G values were subsequently recorded for all samples.
Additional elastic modulus-based parameters previously described were determined for some of the experiments (2009, Nielsen et al., Fibrinolysis 20: 377-380; Nielsen et al., in press, Fibrinolysis; 2005, Nielsen et al., Acta Anaesthesiol Scand 49: 222-231; 2009, Nielsen et al., Blood Coagul Fibrinolysis 20: 448-455). The nomenclature used to describe these phenomena is as follows:
Time to maximum rate of thrombus generation (TMRTG): This is the time interval (min) observed prior to maximum speed of clot growth.
Maximum rate of thrombus generation (MRTG): This is the maximum velocity of clot growth observed (dynes/cm^2/sec).
Total Thrombus Generation (TTG): This is the total area under the velocity curve during clot growth (dynes/cm^2), representing the amount of clot strength generated during clot growth.
Thrombelastographic data are presented as mean±SD. Analyses of the effects of PHA before and after CORM-2 addition to plasma were conducted with one way analysis of variance with Holm-Sidak post hoc test (SigmaStat 3.1, Systat Software, Inc., San Jose, Calif., USA). Comparison between plasma exposed to 10 or 30 mM PHA was performed with an unpaired Student's t-test. The plasmatic strength response to increasing concentrations of CORM-2 was analyzed with one way analysis of variance with Holm-Sidakpost hoc test. Graphical representation of the data was generated with commercially available software (Origin 7.5, OriginLab Corp., Northampton, Mass., USA). A P value of <0.05 was considered significant.

Compound: [C-]#[O+].[C-]#[O+].[C-]#[O+].[C-]#[O+].[C-]#[O+].[C-]#[O+].[Cl][Ru][Cl].[Cl][Ru][Cl] [CORM-2, tricarbonyldichlororuthenium (II) dimer]
- elastic modulus (G), concentration-response (0-200 μM CORM-2, 5 min, no PHA): sigmoidal increase
- MRTG (100 μM CORM-2): 12.4 ± 1.4 dynes/cm^2/sec
- TMRTG (100 μM CORM-2): 2.46 ± 0.15 min
- TTG (100 μM CORM-2): 272 ± 21 dynes/cm^2
- elastic modulus (G) (100 μM CORM-2 vs unexposed plasma): significantly increased
- difference in G, 200 μM vs 100 μM CORM-2 (no PHA): 10.1%
- elastic modulus (G) (plasma exposed to 30 mM PHA 2 min, then 100, 200 or 400 μM CORM-2 5 min): no significant increase

Compound: ONc1ccccc1 [PHA, phenylhydroxylamine]
- elastic modulus (G) (PHA 10 mM 2 min prior to 100 μM CORM-2): significantly smaller than plasma not exposed to either compound
- MRTG (PHA 10 mM alone): 3.6 ± 0.9 dynes/cm^2/sec
- TMRTG (PHA 10 mM alone): 3.59 ± 0.60 min
- TTG (PHA 10 mM alone): 99 ± 11 dynes/cm^2
- elastic modulus (G) (PHA 10 mM alone): less than the other three conditions
- elastic modulus (G) (PHA 30 mM added 5 min after 100 μM CORM-2): not different from plasma not exposed to either compound
- MRTG (PHA 30 mM alone): 3.9 ± 0.8 dynes/cm^2/sec
- TMRTG (PHA 30 mM alone): 3.91 ± 0.70 min
- TTG (PHA 30 mM alone): 106 ± 8 dynes/cm^2
- elastic modulus (G) (PHA 30 mM alone): significantly less than the other three conditions
- elastic modulus (G), reduction of CORM-2 mediated increase (PHA 1 or 5 mM 2 min prior to 100 μM CORM-2): little effect
- elastic modulus (G) (PHA 10 or 20 mM added 5 min after 100 μM CORM-2): negligible effects
